What was measured:
Type in all cases: in vivo
[1] = system: Male Syrian hamsters (Mesocricetus auratus); assay: Plasma lipids in cholesterol-fed hamsters, ezetimibe (K00 04513) plus C1; settings: feed +0.1% CH; for HDL % / Plasma parameter Cholesterol % / Plasma parameter LDL % / Plasma parameter Triglycerides %: cholesterol ctr. = 100
Protocol: (§1) Hamsters were used for the biological testing of the combination product of the invention. Male Syrian hamsters (Mesocricetus auratus) from 8 to 10 weeks of age were used for the experiment. The animals received a standard feed (Teklad 8604M) supplemented with 0.1% cholesterol. An additional normal control group received only standard feed. The test substances were administered orally by gavage once a day on 12 consecutive days, and the control group was treated with the vehicle. Feces were collected on days 5 and 6 of the experiment for bile acid analysis. Retroorbital blood was taken from the animals on day 10 of the experiment, and the lipid levels in the plasma were determined. Radioactive tracers were administered orally to the animals on day 11 of the experiment to determine the cholesterol absorption in analogy to the method described by Zilversmith et al. On day 13 of the experiment, the animals were sacrificed, and the animals' livers were removed for cholesterol analysis and preparation of microsomes. The 7α-hydroxylase activity was determined in the liver microsomes ex vivo by a modified method of Hylemon et al. [table]

[2] = system: Male Syrian hamsters (Mesocricetus auratus); assay: Cholesterol absorption (3H-sitosterol/14C-cholesterol, feces) in hamsters, ezetimibe (K00 04513) plus C1; settings: feed +0.1% CH; for CH absorption % of ctr.: normal ctr. = 100.0
Protocol: as §1

[3] = system: Male Syrian hamsters (Mesocricetus auratus); assay: Liver cholesterol (HPLC) in cholesterol-fed hamsters, ezetimibe (K00 04513) plus C1; settings: feed +0.1% CH; for Liver Cholesterol %: cholesterol ctr. = 100
Protocol: as §1

[4] = system: Male Syrian hamsters (Mesocricetus auratus); assay: Plasma lipids in cholesterol-fed hamsters, combination of compound C1 with Caromax; settings: 30 mg/kg/d C1, feed +0.1% CH
Protocol: as §1, with “[table] Male Syrian hamsters (Mesocricetus auratus) supplied by Harlan 80-100 g at the start of adaptation Safety parameters (CH; TG; ALAT/ASAT; AP; HDL/LDL) Preliminary value and 2 days before end of the experiment (isoflurane anesthesia) by retroorbital blood sampling” for “[table]”

[5] = system: Male Syrian hamsters (Mesocricetus auratus); assay: Liver cholesterol (HPLC) in cholesterol-fed hamsters, C1 with Caromax; settings: 30 mg/kg/d C1, feed +0.1% CH
Protocol: as §1, with “[table] Liver cholesterol (HPLC)=1×500 mg in EtOH/KOH (sample is also used for CH synthesis)” for “[table]”

[6] = system: Male Syrian hamsters (Mesocricetus auratus); assay: Liver cholesterol synthesis (14C-octanoate i.v.) in cholesterol-fed hamsters, C1 with Caromax; settings: 30 mg/kg/d C1, feed +0.1% CH
Protocol: Hamsters were used for the biological testing of the combination product of the invention. Male Syrian hamsters (Mesocricetus auratus) from 8 to 10 weeks of age were used for the experiment. The animals received a standard feed (Teklad 8604M) supplemented with 0.1% cholesterol. An additional normal control group received only standard feed. The test substances were administered orally by gavage once a day on 12 consecutive days, and the control group was treated with the vehicle. [table] Cholesterol Synthesis i.v. administration of ^14C-octanoate 10 μCi/100 g of animal 1 hour before the end of the experiment (isoflurane anesthesia) Removal of 2×500 mg of liver in EtOH/KOH

[7] = group 3, 0.1 mg/kg/d K 00 04513
[8] = group 4, 0.3 mg/kg/d K 00 04513

Structure (SMILES): O=C1[C@H](CC[C@H](O)c2ccc(F)cc2)[C@@H](c2ccc(O)cc2)N1c1ccc(F)cc1 [K 00 04513, ezetimibe, reference compound]
- HDL [1, 7]: 1.98 mmol/L
- Plasma parameter Cholesterol [1, 7]: 3.73 mmol/L
- Plasma parameter LDL [1, 7]: 1.06 mmol/L
- Plasma parameter Triglycerides [1, 7]: 1.99 mmol/L
- HDL % [1, 7]: 92%
- Plasma parameter Cholesterol % [1, 7]: 91%
- Plasma parameter LDL % [1, 7]: 94%
- Plasma parameter Triglycerides % [1, 7]: 98%
- HDL [1, 8]: 1.92 mmol/L
- Plasma parameter Cholesterol [1, 8]: 2.99 mmol/L
- Plasma parameter LDL [1, 8]: 0.40 mmol/L
- Plasma parameter Triglycerides [1, 8]: 1.87 mmol/L
- HDL % [1, 8]: 89%
- Plasma parameter Cholesterol % [1, 8]: 73%
- Plasma parameter LDL % [1, 8]: 35%
- Plasma parameter Triglycerides % [1, 8]: 92%
- HDL ([1]; group 5, 1 mg/kg/d K 00 04513): 1.71 mmol/L
- Plasma parameter Cholesterol ([1]; group 5, 1 mg/kg/d K 00 04513): 2.53 mmol/L
- Plasma parameter LDL ([1]; group 5, 1 mg/kg/d K 00 04513): 0.23 mmol/L
- Plasma parameter Triglycerides ([1]; group 5, 1 mg/kg/d K 00 04513): 1.79 mmol/L
- HDL % ([1]; group 5, 1 mg/kg/d K 00 04513): 80%
- Plasma parameter Cholesterol % ([1]; group 5, 1 mg/kg/d K 00 04513): 62%
- Plasma parameter LDL % ([1]; group 5, 1 mg/kg/d K 00 04513): 20%
- Plasma parameter Triglycerides % ([1]; group 5, 1 mg/kg/d K 00 04513): 88%
- CH absorption % absorption [2, 7]: 47.4%
- CH absorption % of ctr. [2, 7]: ±96.8%
- CH absorption % absorption [2, 8]: 15.6%
- CH absorption % of ctr. [2, 8]: ±31.8%
- CH absorption % absorption ([2]; group 5, 1 mg/kg/d K 00 04513): 5.8%
- CH absorption % of ctr. ([2]; group 5, 1 mg/kg/d K 00 04513): ±11.9%
- Liver Cholesterol [3, 7]: 11.52 mg/g
- Liver Cholesterol % [3, 7]: 105%
- Liver Cholesterol [3, 8]: 2.00 mg/g
- Liver Cholesterol % [3, 8]: 18%
- Liver Cholesterol ([3]; group 5, 1 mg/kg/d K 00 04513): 1.78 mg/g
- Liver Cholesterol % ([3]; group 5, 1 mg/kg/d K 00 04513): 16%

Structure (SMILES): O=C(CCCCCCCCCCNC(=O)[C@H](O)[C@@H](O)[C@H](O)[C@H](O)CO)Nc1ccccc1[C@@H](Nc1ccccn1)[C@H](c1ccccn1)[C@H](O)c1ccccc1 [C1]
- HDL ([1]; group 6, 3 mg/kg/d C1): 2.20 mmol/L
- Plasma parameter Cholesterol ([1]; group 6, 3 mg/kg/d C1): 3.92 mmol/L
- Plasma parameter LDL ([1]; group 6, 3 mg/kg/d C1): 0.98 mmol/L
- Plasma parameter Triglycerides ([1]; group 6, 3 mg/kg/d C1): 1.84 mmol/L
- HDL % ([1]; group 6, 3 mg/kg/d C1): 102%
- Plasma parameter Cholesterol % ([1]; group 6, 3 mg/kg/d C1): 96%
- Plasma parameter LDL % ([1]; group 6, 3 mg/kg/d C1): 87%
- Plasma parameter Triglycerides % ([1]; group 6, 3 mg/kg/d C1): 90%
- HDL ([1]; group 7, 10 mg/kg/d C1): 2.00 mmol/L
- Plasma parameter Cholesterol ([1]; group 7, 10 mg/kg/d C1): 3.70 mmol/L
- Plasma parameter LDL ([1]; group 7, 10 mg/kg/d C1): 0.78 mmol/L
- Plasma parameter Triglycerides ([1]; group 7, 10 mg/kg/d C1): 2.35 mmol/L
- HDL % ([1]; group 7, 10 mg/kg/d C1): 93%
- Plasma parameter Cholesterol % ([1]; group 7, 10 mg/kg/d C1): 90%
- Plasma parameter LDL % ([1]; group 7, 10 mg/kg/d C1): 69%
- Plasma parameter Triglycerides % ([1]; group 7, 10 mg/kg/d C1): 116%
- HDL ([1]; group 8, 30 mg/kg/d C1): 2.02 mmol/L
- Plasma parameter Cholesterol ([1]; group 8, 30 mg/kg/d C1): 3.66 mmol/L
- Plasma parameter LDL ([1]; group 8, 30 mg/kg/d C1): 0.80 mmol/L
- Plasma parameter Triglycerides ([1]; group 8, 30 mg/kg/d C1): 2.02 mmol/L
- HDL % ([1]; group 8, 30 mg/kg/d C1): 94%
- Plasma parameter Cholesterol % ([1]; group 8, 30 mg/kg/d C1): 89%
- Plasma parameter LDL % ([1]; group 8, 30 mg/kg/d C1): 71%
- Plasma parameter Triglycerides % ([1]; group 8, 30 mg/kg/d C1): 99%
- Cholesterol [4]: 3.58 mmol/L
- HDL-cholesterol [4]: 2.42 mmol/L
- LDL-cholesterol [4]: 0.88 mmol/L
- Triglycerides [4]: 1.49 mmol/L
- Cholesterol % ([4]; hyperlip. ctr. = 100): 89%
- HDL-cholesterol % ([4]; hyperlip. ctr. = 100): 96%
- LDL-cholesterol % ([4]; hyperlip. ctr. = 100): 75%
- Triglycerides % ([4]; hyperlip. ctr. = 100): 102%
- CH absorption % absorption ([2]; group 6, 3 mg/kg/d C1): 39.6%
- CH absorption % of ctr. ([2]; group 6, 3 mg/kg/d C1): ±80.9%
- CH absorption % absorption ([2]; group 7, 10 mg/kg/d C1): 49.1%
- CH absorption % of ctr. ([2]; group 7, 10 mg/kg/d C1): ±100.1%
- CH absorption % absorption ([2]; group 8, 30 mg/kg/d C1): 38.3%
- CH absorption % of ctr. ([2]; group 8, 30 mg/kg/d C1): ±78.2%
- Liver Cholesterol [5]: 14.72 mg/g
- Liver Cholesterol % ([5]; hyperlip. ctr. = 100): 54%
- Liver Cholesterol ([3]; group 6, 3 mg/kg/d C1): 10.99 mg/g
- Liver Cholesterol % ([3]; group 6, 3 mg/kg/d C1): 100%
- Liver Cholesterol ([3]; group 7, 10 mg/kg/d C1): 9.50 mg/g
- Liver Cholesterol % ([3]; group 7, 10 mg/kg/d C1): 86%
- Liver Cholesterol ([3]; group 8, 30 mg/kg/d C1): 7.18 mg/g
- Liver Cholesterol % ([3]; group 8, 30 mg/kg/d C1): 65%
- Liver Sterol biosynthesis [6]: 73 dpm/g/h
- Liver Sterol biosynthesis % ([6]; normal ctr. I = 100): 18%
